For data set [1], the system named is Swiss 3T3 fibroblasts. In words: In vitro cytotoxicity assay on contact inhibited, non-dividing 3T3 fibroblasts (MTS). Type of data set: cell-based. The method, then: Other toxicity assays may be used.
Any compound killing 3T3 fibroblast cells was omitted from further studies.
Contact inhibited Swiss 3T3 fibroblasts are purchased from ATCC.
All compound dilutions are assayed in triplicate. […] Cells are returned to the incubator for 2 days.
Media is added to blank wells for background calculations.
Note that starting concentration of CsA was 1 μM.

A short description of data set [2]: Sheep asthma model (Ascaris suum antigen challenge, specific lung resistance, PC400). It is filed as in vivo. The method, then:
Briefly, transpulmonary pressure, pulmonary resistance (RL), specific lung resistance (SRL airway hyper reactivity, airway responsiveness, are determined.
Venous blood samples (˜5 ml) are obtained from a peripheral leg vein or the jugular vein for pharmacokinetic data. Measurement of Airway Mechanics: The unsedated sheep are restrained in a cart in the prone position with their heads immobilized. After topical anesthesia of the nasal passages with 2% lidocaine solution, a balloon catheter is advanced through one nostril into the lower esophagus. The animals are […] with a cuffed endotracheal tube through the other nostril using a flexible fiberoptic bronchoscope as a guide. (The cuff of the endotracheal tube is inflated only for the measurement of airway mechanics and during aerosol challenges to prevent undue discomfort. This procedure has no effect on airway mechanics). Pleural pressure is estimated with the esophageal balloon catheter (filled with one ml of air) which is positioned 5–10 cm from the gastroesophageal junction. In this position the end expiratory pleural pressure ranges between −2 and −5 cm H2O. Once the balloon is placed, it is secured so that it remains in position for the duration of the experiment. Lateral pressure in the trachea is measured with a sidehole catheter (inner dimension, 2.5 mm) advanced through and positioned distal to the tip of the endotracheal tube. Transpulmonary pressure, the difference between tracheal and pleural pressure, is measured with a differential pressure transducer catheter system. […] The signals of flow and transpulmonary pressure is recorded on an oscilloscope recorder which is linked to a computer for on-line calculation of RL from transpulmonary pressure, respiratory volume (obtained by digital integration) and flow. […] Immediately after the measurement of RL, thoracic gas volume (Vtg) is measured in a constant volume body plethysmograph to obtain specific lung resistance (SRL=RL·Vtg) in L×cm H2O/LPS. […]

The nature of data set [3]: Solubility (statement). Type of data set: physicochemical.
Data set [4] can be described thus: Oral bioavailability (statement). Type of data set: in vivo.
Setting [5] is: 3 mg/kg aerosol 30 min before antigen challenge, 2 sheep (FIG. 3A).

Where a name gives a salt, the structure may show the parent alone. Starred links: 1 amine or outer side, 2 acyl side, 3 side chain; linkers in the order of their positions; H or OH if unused. Positions of bridges follow the written chain, without caps; N, C: chain ends. Non-standard residues stand in square brackets, D forms with d. Residues, ends and D or L forms follow the SMILES beside them. Chains are numbered I, II in the order given. Actinocin(9to1) = Cc1c2oc3c(C)ccc(C(=O)[*:1])c3nc-2c(C(=O)[*:2])c(N)c1=O; NMeV = CN[C@H](C(=O)O)C(C)C; Sar = CNCC(=O)O

For orientation: melting point means the temperature of the solid-liquid transition. For the molecule `Cn1c(C(=O)O)c(Nc2ccncc2)c2ccccc21.O=C(O)/C=C\C(=O)O`, the melting point is 192 to 194 °C (dec.). Same read-out and setting: the value for `O=C(O)c1[nH]c2cccc(F)c2c1Nc1ccncc1` (as salt: trifluoroacetate) was 231 to 234 °C (dec.). `COc1ccc2[nH]c(C(=O)O)c(Nc3ccncc3)c2c1` (as salt: trifluoroacetate) returned a melting point of 211 to 213 °C.

In turn, `Cn1c(C(=O)O)c(Nc2ccncc2)c2c(F)cccc21` (as salt: trifluoroacetate) [Example 31, 4-Fluoro-1-Methyl-3-(4-pyridinylamino)-1H-indole-2-carboxylic acid Trifluoroacetate Salt] displayed a melting point of 197 to 199 °C. Consider `Cc1c2oc3c(C)ccc(C(=O)N[C@@H]4C(=O)N[C@H](C(C)C)C(=O)N5CCC[C@H]5C(=O)N(C)CC(=O)N(C)[C@@H](C(C)C)C(=O)O[C@@H]4C)c3nc-2c(C(=O)N[C@@H]2C(=O)N[C@H](C(C)C)C(=O)N3CCC[C@H]3C(=O)N(C)CC(=O)N(C)[C@@H](C(C)C)C(=O)O[C@@H]2C)c(N)c1=O` [Actinomycin D] (I: T[dV]P[Sar][NMeV] / II: T[dV]P[Sar][NMeV]; ester I:1-I:C, II:1-II:C; linker I:N-II:N via Actinocin(9to1)), for which the “viability of quiescent 3T3 cells, % control” value (“viability … % control” for short) in data set [1] (0.001 μM, 2 day incubation) came to 79.0 % control. The “toxic effects on quiescent 3T3 cells (in words)” value in data set [1] (non-dividing 3T3 cells) is “effected the viability”. Regarding `C[C@@H]1C[C@H]2[C@@H]3CCC4=CC(=O)C=C[C@]4(C)[C@@]3(F)[C@@H](O)C[C@]2(C)[C@@]1(O)C(=O)CO` [Dexamethasone], in data set [1] (mouse, 2 days, 0.001 μM), the “viability … % control” value stood at 100.0 % control.

`CC(C)(C)OC(=O)c1[nH]c2cccc(F)c2c1Nc1ccncc1` [Example 17, 4-fluoro-3-(4-pyridinylamino)-1H-indole-2-carboxylic tert-butyl ester] yielded a melting point of 210 to 212 °C. Molecule `COc1ccc2[nH]c(C(=O)OC(C)(C)C)c(Nc3ccncc3)c2c1` [Example 21, 5-methoxy-3-(4-pyridinylamino)-1H-indole-2-carboxylic tert-butyl ester] showed a melting point of 217 to 219 °C. The same measure, in the same setting: the value for `CCOC(=O)c1c(Nc2ccncc2)c2ccc(Cl)cc2n1C` [Example 27, 6-Chloro-1-methyl-3-(4-pyridinylamino)-1H-indole-2-carboxylic ethyl ester] was 154 to 155 °C. On to `O=C(O)c1[nH]c2ccccc2c1Nc1ccncc1` [Example 28, 3-(4-Pyridinylamino)-1H-indole-2-carboxylic acid], for which, in data set [2] (setting [5]), the “antigen-induced early bronchial response: acute increase in specific lung resistance (SRL)” value was “did not affect” and the “antigen-induced late bronchial response (SRL)” value is reported as “blocked the late response”. The “post challenge airway responsiveness (decrease of PC400 after antigen challenge)” value in data set [2] (3 mg/kg, 2 sheep (FIG. 3B)) is “prevented this effect”. For the same molecule, in data set [3], the “solubility (in words)” value was “relatively low solubility”. The “oral bioavailability (in words)” value in data set [4] is recorded as “low oral bioavailability”. In turn, `CCOC(=O)c1c(Nc2ccncc2)c2ccc(Cl)cc2n1CC(=O)N(CC)CC` [Example 34, 6-Chloro-1-diethylcarbamoylmethyl-3-(pyridin-4-ylamino)-1H-indole-2-carboxylic acid ethyl ester] registered a melting point of 212 to 214 °C.

`CN(C(=O)c1ccc(Cl)cc1)c1c(C(=O)O)[nH]c2cc(Cl)cc(Cl)c12` [Example 80, 3-((4-chlorobenzoyl)methylamino)-4,6-dichloro-1H-indole-2-carboxylic acid] yielded a melting point of 279 to 283 °C. `O=C(Nc1c(C(=O)O)[nH]c2cc(Cl)cc(Cl)c12)c1ccccc1Cc1ccccc1` [Example 87, 3-((2-Benzylbenzoyl)amino)-4,6-dichloro-1H-indole-2-carboxylic acid] displayed a melting point of 234 to 235 °C. `CN(C(=O)c1cccc(F)c1)c1c(C(=O)O)[nH]c2cc(Cl)cc(Cl)c12` [Example 88, 3-((3-Fluorobenzoyl)methylamino)-4,6-dichloro-1H-indole-2-carboxylic acid] registered a melting point of 270 to 280 °C.

On to `NC(=O)c1[nH]c2ccccc2c1Nc1ccncc1` [Example 128, 3-(Pyridin-4-ylamino)-1H-indole-2-carboxamide], for which the melting point is 230 °C (dec.). Take `CN(Cc1cnc2nc(N)nc(N)c2n1)c1ccc(C(=O)N[C@@H](CCC(=O)O)C(=O)O)cc1` [Methotrexate]: in data set [1] (mouse, 2 days, 0.03 μM), the “viability … % control” value came out at 100.0 % control.

The values are drawn from patent publication US7169925B2, “Indole derivatives as interleukin-4 gene expression inhibitors” (Aventis Pharmaceuticals Inc., priority 2002, dated 2007).
